Measurements from patent US10745400B2, “Inhibition of BMP signaling, compounds, compositions and uses thereof” (Vanderbilt University, priority 2018, dated 2020).

Experiments:
ALK1/ACVRL1 = ALK1/ACVRL1 (Homo sapiens, UniProt P37023); assay: Kinase assay (33P-ATP filter-binding), ALK1; format: biochemical; conditions: read-out: Kinase Selectivity ALK1/ACVRL1
Outline: (§1)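 Radiometric 33P-ATP turnover captured on P81 paper following a 2 h room-temperature reaction. Compounds were preincubated with enzyme and substrate for 20 min in pH 7.5 Hepes buffer containing 1% DMSO.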

ALK2/ACVR1 = target: T1, ALK2/ACVR1 (Homo sapiens, UniProt Q04771); assay: Kinase assay (33P-ATP filter-binding), ALK2; format: biochemical; conditions: 20 mM; read-out: Kinase Selectivity ALK2/ACVR1 (20 mM)
T1 sequence (Q04771 21-509): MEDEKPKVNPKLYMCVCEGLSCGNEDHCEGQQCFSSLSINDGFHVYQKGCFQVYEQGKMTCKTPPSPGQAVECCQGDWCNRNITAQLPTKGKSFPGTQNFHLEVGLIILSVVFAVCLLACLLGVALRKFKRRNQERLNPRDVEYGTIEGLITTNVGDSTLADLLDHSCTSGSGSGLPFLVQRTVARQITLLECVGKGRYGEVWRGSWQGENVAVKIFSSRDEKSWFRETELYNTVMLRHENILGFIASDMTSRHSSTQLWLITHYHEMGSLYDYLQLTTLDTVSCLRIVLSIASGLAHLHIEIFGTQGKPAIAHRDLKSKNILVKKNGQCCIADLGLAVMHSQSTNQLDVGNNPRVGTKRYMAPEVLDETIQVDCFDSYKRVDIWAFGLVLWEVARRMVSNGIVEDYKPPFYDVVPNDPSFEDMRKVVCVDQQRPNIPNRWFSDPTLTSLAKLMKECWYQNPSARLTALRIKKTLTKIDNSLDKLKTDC
Outline: as §1

ALK3/BMPR1A = ALK3/BMPR1A (Homo sapiens, UniProt P36894); assay: Kinase assay (33P-ATP filter-binding), ALK3; format: biochemical; conditions: 1 mM; read-out: Kinase Selectivity ALK3/BMPR1A (1 mM)
Chain of ALK3/BMPR1A (P36894 24-532): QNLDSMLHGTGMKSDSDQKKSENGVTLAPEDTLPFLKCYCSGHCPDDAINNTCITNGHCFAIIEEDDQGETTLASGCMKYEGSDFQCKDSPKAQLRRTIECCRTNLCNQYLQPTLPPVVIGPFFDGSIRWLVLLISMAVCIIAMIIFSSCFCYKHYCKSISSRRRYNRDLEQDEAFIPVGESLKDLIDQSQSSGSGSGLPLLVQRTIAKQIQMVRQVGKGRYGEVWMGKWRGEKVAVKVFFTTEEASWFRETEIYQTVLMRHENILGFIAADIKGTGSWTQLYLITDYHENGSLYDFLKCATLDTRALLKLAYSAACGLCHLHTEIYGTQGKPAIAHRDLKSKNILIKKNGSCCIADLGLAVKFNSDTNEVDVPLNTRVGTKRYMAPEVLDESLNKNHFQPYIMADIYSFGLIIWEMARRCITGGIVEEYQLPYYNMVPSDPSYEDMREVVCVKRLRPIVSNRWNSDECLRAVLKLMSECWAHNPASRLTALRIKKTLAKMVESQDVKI
Outline: as §1

ALK6 = ALK6 (Homo sapiens, UniProt O00238); assay: Kinase assay (33P-ATP filter-binding), ALK6; format: biochemical; conditions: read-out: Kinase Selectivity ALK6
Chain of ALK6 (O00238 14-502): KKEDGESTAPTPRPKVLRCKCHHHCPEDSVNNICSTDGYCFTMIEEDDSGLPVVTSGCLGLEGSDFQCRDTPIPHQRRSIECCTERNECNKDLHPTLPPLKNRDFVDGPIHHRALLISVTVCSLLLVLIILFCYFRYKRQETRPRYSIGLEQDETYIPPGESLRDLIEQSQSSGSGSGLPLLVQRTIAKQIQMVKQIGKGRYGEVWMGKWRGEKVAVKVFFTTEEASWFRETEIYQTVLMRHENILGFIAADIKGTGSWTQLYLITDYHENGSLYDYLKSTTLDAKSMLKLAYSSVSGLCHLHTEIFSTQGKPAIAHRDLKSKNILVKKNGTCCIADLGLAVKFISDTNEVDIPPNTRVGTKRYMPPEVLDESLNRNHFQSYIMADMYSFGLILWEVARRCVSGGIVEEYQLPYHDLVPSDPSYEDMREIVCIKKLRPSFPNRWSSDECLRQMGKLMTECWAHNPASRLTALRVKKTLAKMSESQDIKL
Description: (§2) The kinase assays were carried out briefly as follows. Substrate was prepared in Base Reaction Buffer (20 mM Hepes (pH 7.5), 10 mM MgCl2, 1 mM EGTA, 0.02% Brij35, 0.02 mg/ml BSA, 0.1 mM Na3VO4, 2 mM DTT, 1% DMSO). The indicated kinases was delivered into the substrate solution and allowed to gently mix. Next, the specific compound was delivered in DMSO into the kinase mixture by Acoustic technology (Echo550; nanoliter range), and allowed to incubate for 20 minutes at room temperature. Next, ^33P-ATP was delivered into the reaction mixture to initiate the reaction and allowed to incubate at room temperature. After 2 hours, the reactions were spotted onto P81 ion exchange paper and the kinase activity is detected by the filter-binding method.

BMPR2 = target: T2, BMPR2 (Homo sapiens, UniProt Q13873); assay: Kinase assay (33P-ATP filter-binding), BMPR2; format: biochemical; conditions: read-out: Kinase Selectivity BMPR2
T2 sequence (Q13873 27-1038): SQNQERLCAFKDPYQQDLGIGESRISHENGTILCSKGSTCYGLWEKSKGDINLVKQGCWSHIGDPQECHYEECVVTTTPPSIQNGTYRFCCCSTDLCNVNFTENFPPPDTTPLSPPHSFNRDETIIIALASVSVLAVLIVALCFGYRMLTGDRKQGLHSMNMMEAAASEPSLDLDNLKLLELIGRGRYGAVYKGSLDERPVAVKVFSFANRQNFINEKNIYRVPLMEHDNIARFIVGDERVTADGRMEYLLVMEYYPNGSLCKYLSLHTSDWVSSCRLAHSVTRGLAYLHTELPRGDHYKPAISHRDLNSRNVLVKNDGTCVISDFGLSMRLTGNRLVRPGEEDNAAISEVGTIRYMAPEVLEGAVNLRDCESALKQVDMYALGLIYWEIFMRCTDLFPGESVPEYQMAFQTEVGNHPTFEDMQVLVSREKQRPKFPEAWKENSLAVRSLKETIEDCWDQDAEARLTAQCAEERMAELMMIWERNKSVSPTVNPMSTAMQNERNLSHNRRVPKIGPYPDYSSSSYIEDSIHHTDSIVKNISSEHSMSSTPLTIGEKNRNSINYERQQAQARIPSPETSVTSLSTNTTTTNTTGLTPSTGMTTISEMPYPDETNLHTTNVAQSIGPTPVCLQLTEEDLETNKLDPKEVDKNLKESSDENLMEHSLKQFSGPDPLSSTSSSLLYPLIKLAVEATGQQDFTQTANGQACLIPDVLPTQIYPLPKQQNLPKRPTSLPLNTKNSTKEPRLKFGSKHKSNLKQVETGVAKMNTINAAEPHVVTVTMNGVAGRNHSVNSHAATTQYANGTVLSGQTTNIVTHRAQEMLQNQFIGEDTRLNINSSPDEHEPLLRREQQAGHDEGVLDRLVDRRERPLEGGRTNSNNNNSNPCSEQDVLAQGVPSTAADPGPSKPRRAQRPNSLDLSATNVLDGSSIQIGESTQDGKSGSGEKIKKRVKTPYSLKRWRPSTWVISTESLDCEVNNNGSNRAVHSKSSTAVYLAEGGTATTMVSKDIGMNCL
Description: as §2

TGFbR2 = TGFbR2 (Homo sapiens, UniProt P37173); assay: Kinase assay (33P-ATP filter-binding), TGFbR2; format: biochemical; conditions: read-out: Kinase Selectivity TGFbR2
Chain of TGFbR2 (P37173 23-567, species assumed): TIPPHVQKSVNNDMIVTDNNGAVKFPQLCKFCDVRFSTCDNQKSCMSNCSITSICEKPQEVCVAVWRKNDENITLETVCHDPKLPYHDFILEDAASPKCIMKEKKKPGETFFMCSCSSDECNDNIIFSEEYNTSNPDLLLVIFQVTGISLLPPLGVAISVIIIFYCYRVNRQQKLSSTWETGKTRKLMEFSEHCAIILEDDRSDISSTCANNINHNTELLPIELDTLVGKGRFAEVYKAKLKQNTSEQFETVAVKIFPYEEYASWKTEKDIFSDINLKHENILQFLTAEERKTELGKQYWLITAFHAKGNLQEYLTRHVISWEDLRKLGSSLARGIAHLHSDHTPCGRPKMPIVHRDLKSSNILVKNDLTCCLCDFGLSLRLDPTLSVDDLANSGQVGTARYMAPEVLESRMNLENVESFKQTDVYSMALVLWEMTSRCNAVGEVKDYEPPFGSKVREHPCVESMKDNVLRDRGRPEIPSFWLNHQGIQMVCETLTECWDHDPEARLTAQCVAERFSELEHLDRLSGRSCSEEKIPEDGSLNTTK
Description: as §2

PDGFRb = PDGFRb (Homo sapiens, UniProt P09619); assay: Kinase assay (33P-ATP filter-binding), PDGFRb; format: biochemical; conditions: read-out: Kinase Selectivity PDGFRb
Chain of PDGFRb (P09619 33-1106, species assumed): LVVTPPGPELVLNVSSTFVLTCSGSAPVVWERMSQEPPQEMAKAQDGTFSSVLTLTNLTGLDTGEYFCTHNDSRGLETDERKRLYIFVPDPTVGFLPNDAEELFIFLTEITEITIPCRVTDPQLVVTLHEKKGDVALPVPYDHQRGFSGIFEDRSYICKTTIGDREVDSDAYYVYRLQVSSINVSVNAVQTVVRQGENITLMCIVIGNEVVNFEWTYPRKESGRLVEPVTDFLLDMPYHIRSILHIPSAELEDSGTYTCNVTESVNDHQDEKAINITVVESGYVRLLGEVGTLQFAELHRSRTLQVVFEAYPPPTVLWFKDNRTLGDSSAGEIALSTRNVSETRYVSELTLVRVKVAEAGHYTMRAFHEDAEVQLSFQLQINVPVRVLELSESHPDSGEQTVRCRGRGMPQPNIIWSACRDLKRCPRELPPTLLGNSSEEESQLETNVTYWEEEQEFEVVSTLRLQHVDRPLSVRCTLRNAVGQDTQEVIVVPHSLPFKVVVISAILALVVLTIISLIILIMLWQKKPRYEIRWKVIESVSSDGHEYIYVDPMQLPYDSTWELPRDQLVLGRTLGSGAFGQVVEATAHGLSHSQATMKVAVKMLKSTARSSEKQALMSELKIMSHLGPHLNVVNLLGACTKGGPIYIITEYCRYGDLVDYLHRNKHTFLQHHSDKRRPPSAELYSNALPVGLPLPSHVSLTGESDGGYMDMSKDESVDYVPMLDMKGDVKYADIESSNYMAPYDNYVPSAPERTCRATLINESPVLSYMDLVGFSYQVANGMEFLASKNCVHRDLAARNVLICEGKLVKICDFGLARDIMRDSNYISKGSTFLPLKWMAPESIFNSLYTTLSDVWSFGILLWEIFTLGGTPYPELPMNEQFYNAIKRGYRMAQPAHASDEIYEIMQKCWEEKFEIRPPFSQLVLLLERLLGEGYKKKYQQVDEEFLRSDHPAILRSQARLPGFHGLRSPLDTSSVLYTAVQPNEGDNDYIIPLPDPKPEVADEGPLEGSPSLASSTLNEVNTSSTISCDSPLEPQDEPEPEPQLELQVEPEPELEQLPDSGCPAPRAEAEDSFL
Description: as §2

[1] = Intrinsic clearance, human; format: in vitro ADME; conditions: human
[2] = Intrinsic clearance, mouse; format: in vitro ADME; conditions: mouse
Protein binding, mouse = format: in vitro ADME
[3] = CL-Hep, value in parentheses, read-out: Intrinsic Clearance Human (CL-Hep)
[4] = read-out: Intrinsic Clearance Human
[5] = CL-Hep, value in parentheses, read-out: Intrinsic Clearance Mouse (CL-Hep)
[6] = read-out: Intrinsic Clearance Mouse

Chain of ALK1/ACVRL1 (P37023 22-503): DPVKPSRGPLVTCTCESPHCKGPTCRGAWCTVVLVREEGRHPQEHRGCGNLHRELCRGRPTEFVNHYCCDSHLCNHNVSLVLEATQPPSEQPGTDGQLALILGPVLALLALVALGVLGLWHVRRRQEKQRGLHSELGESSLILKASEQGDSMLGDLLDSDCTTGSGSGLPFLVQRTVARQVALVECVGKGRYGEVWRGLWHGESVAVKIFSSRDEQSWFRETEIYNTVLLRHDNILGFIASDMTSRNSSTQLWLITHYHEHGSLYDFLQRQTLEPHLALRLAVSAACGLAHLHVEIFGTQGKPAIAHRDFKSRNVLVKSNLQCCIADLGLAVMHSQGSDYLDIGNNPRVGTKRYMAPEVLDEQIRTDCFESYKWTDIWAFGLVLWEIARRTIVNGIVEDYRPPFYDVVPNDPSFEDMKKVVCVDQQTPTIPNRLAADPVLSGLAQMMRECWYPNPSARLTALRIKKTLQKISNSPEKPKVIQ

Structure (SMILES)	IC50 (ALK1/ACVRL1)	IC50 (ALK2/ACVR1)	IC50 (ALK3/BMPR1A)	IC50 (ALK6)	IC50 (BMPR2)	IC50 (TGFbR2)	IC50 (PDGFRb)	CLint scaled [1, 3]	CLint scaled [1, 4]	CLint scaled [2, 5]	CLint scaled [2, 6]	Protein Binding (% Free) Mouse (Protein binding, mouse)
Cc1cc(-c2cnc3cc(-c4ccc(C5COC6(CCNCC6)CN5)cc4)ccn23)c2cc(F)cc(F)c2n1 (stereo not drawn) [Compound 16]	152 nM	< 5.1 nM	< 5.1 nM	188 nM	> 100000 nM	620 nM	7700 nM	< 10.7 mL/min/kg	< 23.1 mL/min/kg	< 32.9 mL/min/kg	< 49.5 mL/min/kg	4.7 % Free
Cc1cc(-c2cnc3cc(-c4ccc(C5COCC(C)N5)cc4)ccn23)c2cc(F)cc(F)c2n1 (stereo not drawn) [Compound 23]	42.8 nM	< 5.1 nM	< 5.1 nM	369 nM	> 100000 nM	560 nM	7340 nM	17.5 mL/min/kg	139 mL/min/kg	42.9 mL/min/kg	82.2 mL/min/kg	2.85 % Free
Cc1cc(-c2cnc3cc(-c4ccc(C5COC6(CCNC6)CN5)cc4)ccn23)c2cc(F)cc(F)c2n1 (stereo not drawn) [Compound 27]	907 nM	29.1 nM	13.5 nM	429 nM	> 100000 nM	1870 nM	21700 nM	< 10.7 mL/min/kg	< 23.1 mL/min/kg	< 32.9 mL/min/kg	< 49.5 mL/min/kg	3.9 % Free
c1cnc2nccc(-c3cnc4cc(-c5ccc(C6CNCCN6)cc5)ccn34)c2c1 (stereo not drawn) [Compound 32]	197 nM	16.5 nM	< 5.1 nM	54.5 nM	54400 nM	4590 nM	2820 nM	< 11 mL/min/kg	< 23.1 mL/min/kg	< 31.9 mL/min/kg	< 49.5 mL/min/kg	33.9 % Free
c1cc(-c2cnc3cc(-c4ccc(C5CNCCN5)cc4)ccn23)c2cccnc2c1 (stereo not drawn) [Compound 33]	61.3 nM	< 5.1 nM	82.7 nM	188 nM	> 100000 nM	620 nM	7700 nM	< 11 mL/min/kg	< 23.1 mL/min/kg	< 31.9 mL/min/kg	< 49.5 mL/min/kg	8.4 % Free
O=C1CNC(=O)C(c2ccc(-c3ccn4c(-c5cccc6ncccc56)cnc4c3)cc2)N1 (stereo not drawn) [Compound 36]	84.9 nM	< 5.1 nM	295 nM	188 nM	> 100000 nM	498 nM	6930 nM					
NS(=O)(=O)c1ccc(-c2cnc3cc(-c4ccc(C5CNCCN5)cc4)ccn23)c2ccccc12 (stereo not drawn) [Compound 37]	723 nM	14.6 nM	20300 nM	231 nM	> 100000 nM	2680 nM	6490 nM	< 11 mL/min/kg	< 23.1 mL/min/kg	< 31.9 mL/min/kg	< 49.5 mL/min/kg	
